Structures can show the parent of a compound that is named as a salt.
How the values were obtained:
[1] = molecular target: PI3Kδ (p110δ/p85α) Recombinant Human Protein (Homo sapiens (Human), UniProt O00329); test: PI3Kδ Scintillation Proximity Assay; type: biochemical; conditions: read-out: PI3K-delta SPA IC50
How it was run: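 Recombinant human p110δ/p85α (3.4 nM) phosphorylates 20 μM di-octanoyl PIP2 using 2 μM ATP spiked with [γ-33P]ATP, 120 min, room temperature, pH 6.7, 2% DMSO. Product measured by scintillation proximity; IC50 from dose-response fit.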

[2] = molecular target: PI3Kγ (p110γ) Recombinant Human Protein (Homo sapiens (Human), UniProt P48736); test: PI3K-γ Scintillation Proximity Assay; type: biochemical; conditions: read-out: PI3K-gamma SPA IC50
Sequence of PI3Kγ (p110γ) Recombinant Human Protein (P48736 whole entry): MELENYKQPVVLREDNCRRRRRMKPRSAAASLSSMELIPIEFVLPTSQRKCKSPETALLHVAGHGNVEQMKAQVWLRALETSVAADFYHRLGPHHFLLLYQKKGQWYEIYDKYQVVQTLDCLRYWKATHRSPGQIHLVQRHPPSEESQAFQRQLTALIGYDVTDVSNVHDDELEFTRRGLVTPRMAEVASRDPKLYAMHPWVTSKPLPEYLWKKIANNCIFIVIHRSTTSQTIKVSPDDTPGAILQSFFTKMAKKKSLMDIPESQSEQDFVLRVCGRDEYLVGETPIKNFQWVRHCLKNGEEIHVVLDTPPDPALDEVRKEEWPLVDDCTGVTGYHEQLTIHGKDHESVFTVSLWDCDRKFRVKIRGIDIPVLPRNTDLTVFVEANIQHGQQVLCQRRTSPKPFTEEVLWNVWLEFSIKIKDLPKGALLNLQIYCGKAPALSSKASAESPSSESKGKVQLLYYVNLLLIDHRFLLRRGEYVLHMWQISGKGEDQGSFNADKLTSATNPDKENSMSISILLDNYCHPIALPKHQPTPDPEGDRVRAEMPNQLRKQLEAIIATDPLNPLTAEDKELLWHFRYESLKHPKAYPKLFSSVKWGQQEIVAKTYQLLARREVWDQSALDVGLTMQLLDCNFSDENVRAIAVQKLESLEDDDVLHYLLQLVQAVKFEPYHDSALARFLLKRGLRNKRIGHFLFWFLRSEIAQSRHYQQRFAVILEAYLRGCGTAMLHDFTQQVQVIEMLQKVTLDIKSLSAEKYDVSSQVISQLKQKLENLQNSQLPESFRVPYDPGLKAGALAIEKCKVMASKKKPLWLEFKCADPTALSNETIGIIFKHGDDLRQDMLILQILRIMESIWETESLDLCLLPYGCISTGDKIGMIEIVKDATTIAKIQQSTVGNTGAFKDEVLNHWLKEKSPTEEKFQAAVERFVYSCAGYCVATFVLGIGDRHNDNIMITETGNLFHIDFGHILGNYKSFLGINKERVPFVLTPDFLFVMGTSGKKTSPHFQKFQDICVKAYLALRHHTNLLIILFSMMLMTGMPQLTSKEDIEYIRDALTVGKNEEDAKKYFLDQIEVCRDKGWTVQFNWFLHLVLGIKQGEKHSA
How it was run: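 Recombinant human p110γ (13 nM) with 20 μM PIP2 and 2 μM ATP plus 0.5 μCi [γ-33P]ATP in 20 mM MOPS pH 6.7, 10 mM MgCl2, 5 mM DTT, 0.03% CHAPS, 2% DMSO, 120 min at room temperature. Product captured on WGA SPA beads and counted; IC50 fitted from % of solvent control versus log concentration.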

Sequence of PI3Kδ (p110δ/p85α) Recombinant Human Protein (O00329 whole entry): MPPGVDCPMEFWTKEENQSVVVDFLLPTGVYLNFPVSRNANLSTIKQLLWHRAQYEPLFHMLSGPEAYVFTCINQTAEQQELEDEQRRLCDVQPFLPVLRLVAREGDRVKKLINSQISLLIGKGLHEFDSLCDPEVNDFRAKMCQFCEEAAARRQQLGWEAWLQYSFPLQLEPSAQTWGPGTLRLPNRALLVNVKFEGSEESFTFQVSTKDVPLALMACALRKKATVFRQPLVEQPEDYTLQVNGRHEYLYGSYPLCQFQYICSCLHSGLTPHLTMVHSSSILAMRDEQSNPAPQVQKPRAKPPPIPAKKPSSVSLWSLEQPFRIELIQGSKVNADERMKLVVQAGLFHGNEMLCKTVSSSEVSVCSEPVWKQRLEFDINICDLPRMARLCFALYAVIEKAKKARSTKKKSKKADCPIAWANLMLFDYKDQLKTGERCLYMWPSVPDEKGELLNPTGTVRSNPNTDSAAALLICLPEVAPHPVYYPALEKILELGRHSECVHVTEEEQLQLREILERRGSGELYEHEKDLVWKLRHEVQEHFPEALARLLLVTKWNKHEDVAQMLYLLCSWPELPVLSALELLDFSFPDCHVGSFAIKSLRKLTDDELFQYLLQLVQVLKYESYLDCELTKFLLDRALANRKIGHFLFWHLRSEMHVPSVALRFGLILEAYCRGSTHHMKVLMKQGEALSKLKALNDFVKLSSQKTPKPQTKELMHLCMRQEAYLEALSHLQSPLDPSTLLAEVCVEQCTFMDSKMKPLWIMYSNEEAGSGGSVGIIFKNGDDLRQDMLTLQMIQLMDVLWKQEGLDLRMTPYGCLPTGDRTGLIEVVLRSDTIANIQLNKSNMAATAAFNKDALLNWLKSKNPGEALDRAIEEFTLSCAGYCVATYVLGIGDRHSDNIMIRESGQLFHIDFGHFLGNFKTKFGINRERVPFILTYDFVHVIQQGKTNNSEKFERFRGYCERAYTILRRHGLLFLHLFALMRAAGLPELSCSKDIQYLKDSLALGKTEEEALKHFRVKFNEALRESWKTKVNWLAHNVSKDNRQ
Sequence of PI3Kδ (p110δ/p85α) Recombinant Human Protein (P27986 whole entry partner): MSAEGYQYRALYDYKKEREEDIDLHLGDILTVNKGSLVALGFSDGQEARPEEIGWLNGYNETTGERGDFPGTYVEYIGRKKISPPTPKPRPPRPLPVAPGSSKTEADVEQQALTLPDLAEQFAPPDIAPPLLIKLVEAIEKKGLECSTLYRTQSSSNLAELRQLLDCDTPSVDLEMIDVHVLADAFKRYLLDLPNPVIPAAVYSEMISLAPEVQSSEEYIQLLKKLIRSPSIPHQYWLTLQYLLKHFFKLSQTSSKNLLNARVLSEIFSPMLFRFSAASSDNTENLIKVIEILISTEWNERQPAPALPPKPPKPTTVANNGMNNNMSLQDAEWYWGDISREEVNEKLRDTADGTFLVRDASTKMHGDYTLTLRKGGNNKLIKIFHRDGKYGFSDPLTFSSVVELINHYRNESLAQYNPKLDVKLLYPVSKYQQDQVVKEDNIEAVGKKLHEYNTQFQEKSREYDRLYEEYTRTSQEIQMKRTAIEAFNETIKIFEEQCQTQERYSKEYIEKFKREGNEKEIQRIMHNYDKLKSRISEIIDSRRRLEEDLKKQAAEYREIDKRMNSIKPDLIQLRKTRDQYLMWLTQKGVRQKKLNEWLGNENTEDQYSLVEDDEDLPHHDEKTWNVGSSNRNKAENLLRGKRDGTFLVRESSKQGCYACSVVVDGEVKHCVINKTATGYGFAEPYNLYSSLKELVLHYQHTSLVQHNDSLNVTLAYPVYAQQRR

Row | IC50 [1] | IC50 [2] | SMILES
1 | ≤ 50 nM | > 500 nM | Cc1[nH]c(-c2cc(-c3cncc(N4CCOCC4)c3)ccn2)nc1CN(C)C [Example 289, N,N-Dimethyl-1-[5-methyl-2-(5-morpholin-4-yl-3,4′-bipyridin-2′-yl)-1H-imidazol-4-yl]methanamine]
2 | > 500 nM | ≤ 500 nM | Cc1nc(-c2cc(C3CCCN(S(=O)(=O)c4ccccc4)C3)ccn2)[nH]c1C (racemic) [Example 215, 2-(4,5-Dimethyl-1H-imidazol-2-yl)-4-[1-(phenylsulfonyl)piperidin-3-yl]pyridine Trifluoroacetate Salt]
3 | ≤ 500 nM | ≤ 100 nM | Cc1nc(-c2cc(-c3cncc(C(=O)NCC4CCCO4)c3)ccn2)[nH]c1C (racemic) [Example 167, 2′-(4,5-Dimethyl-1H-imidazol-2-yl)-N-((tetrahydrofuran-2-yl)methyl)-3,4′-bipyridine-5-carboxamide trifluoroacetate salt]
4 | ≤ 100 nM | ≤ 500 nM | CCNC(=O)Nc1cncc(-c2ccnc(-c3ncc(-c4ccccc4)[nH]3)c2)c1 [Example 139, N-Ethyl-N′-[2′-(5-phenyl-1H-imidazol-2-yl)-3,4′-bipyridin-5-yl]urea Trifluoroacetate Salt]
5 | ≤ 500 nM | ≤ 500 nM | CCCn1cc(-c2ccnc(-c3ncc(-c4ccccc4)[nH]3)c2)cn1 [Example 12, 2-(5-Phenyl-1H-imidazol-2-yl)-4-(1-propyl-1H-pyrazol-4-yl)pyridine trifluoroacetate salt]
6 | ≤ 100 nM | ≤ 500 nM | O=C(O)CCn1cc(-c2ccnc(-c3ncc(-c4ccccc4)[nH]3)c2)cn1 [Example 57, 3-(4-(2-(5-Phenyl-1H-imidazol-2-yl)pyridin-4-yl)-1H-pyrazol-1-yl)propanoic acid trifluoroacetate salt]
7 | > 500 nM | > 500 nM | O=C(Cn1cc(-c2ccnc(-c3ncc(-c4ccccc4)[nH]3)c2)cn1)N1CCCC1 [Example 50, 2-(4-(2-(5-Phenyl-1H-imidazol-2-yl)pyridin-4-yl)-1H-pyrazol-1-yl)-1-(pyrrolidin-1-yl)ethanone trifluoroacetate salt]
8 | > 500 nM | > 500 nM | CN1CCN(c2cncc(-c3ccnc(-c4ncc(-c5ccccc5)[nH]4)c3)c2)CC1 [Example 37, 5-(4-Methylpiperazin-1-yl)-2′-(5-phenyl-1H-imidazol-2-yl)-3,4′-bipyridin trifluoroacetate salt]
9 | > 500 nM | > 500 nM | CCOC(=O)c1nc(-c2cc(-c3cncc(OC)c3)ccn2)[nH]c1C(F)(F)F [Example 80, Ethyl 2-(5-methoxy-3,4′-bipyridin-2′-yl)-5-(trifluoromethyl)-1H-imidazole-4-carboxylate]
10 | ≤ 500 nM | > 500 nM | Cc1[nH]c(-c2cc(-c3cncc(N4CCOCC4)c3)ccn2)nc1CN[C@@H]1CCOC1 [Example 287, (3R)-N-{[5-Methyl-2-(5-morpholin-4-yl-3,4′-bipyridin-2′-yl)-1H-imidazol-4-yl]methyl}tetrahydrofuran-3-amine]
11 | ≤ 100 nM | > 500 nM | COCCNCc1nc(-c2cc(-c3cncc(N4CCOCC4)c3)ccn2)[nH]c1C [Example 290, 2-Methoxy-N-{[5-methyl-2-(5-morpholin-4-yl-3,4′-bipyridin-2′-yl)-1H-imidazol-4-yl]methyl}ethanamine]
12 | ≤ 50 nM | ≤ 100 nM | Cc1nc(-c2cc(-c3cncc(C(=O)N4CCC(c5ccccc5)C4)c3)ccn2)[nH]c1C (racemic) [Example 181, 2′-(4,5-Dimethyl-1H-imidazol-2-yl)-5-[(3-phenylpyrrolidin-1-yl)carbonyl]-3,4′-bipyridine trifluoroacetate salt]
13 | ≤ 500 nM | ≤ 500 nM | O=C(Nc1cncc(-c2ccnc(-c3ncc(-c4ccccc4)[nH]3)c2)c1)c1ccccc1 [Example 132, N-(2′-(5-Phenyl-1H-imidazol-2-yl)-3,4′-bipyridin-5-yl)benzamide]
14 | ≤ 100 nM | ≤ 100 nM | Cc1nc(-c2cc(-c3cncc(C(=O)N4CC5(CCN(C)C5=O)C4)c3)ccn2)[nH]c1C [Example 171, 2-(2′-(4,5-Dimethyl-1H-imidazol-2-yl)-3,4′-bipyridine-5-carbonyl)-6-methyl-2,6-diazaspiro[3.4]octan-5-one trifluoroacetate salt]
15 | > 500 nM | > 500 nM | CNC(=O)CCn1cc(-c2ccnc(-c3ncc(-c4ccccc4)[nH]3)c2)cn1 [Example 58, N-Methyl-3-(4-(2-(5-phenyl-1H-imidazol-2-yl)pyridin-4-yl)-1H-pyrazol-1-yl)propanamide trifluoroacetate salt]
16 | ≤ 500 nM | ≤ 500 nM | CC(C)(C)OC(=O)Nc1cncc(-c2ccnc(-c3ncc(-c4ccccc4)[nH]3)c2)c1 [Example 126, tert-Butyl [2′-(5-phenyl-1H-imidazol-2-yl)-3,4′-bipyridin-5-yl]carbamate]
17 | ≤ 500 nM | ≤ 500 nM | N#Cc1cccc(C(=O)Nc2cncc(-c3ccnc(-c4ncc(-c5ccccc5)[nH]4)c3)c2)c1 [Example 136, 3-Cyano-N-(2′-(5-phenyl-1H-imidazol-2-yl)-3,4′-bipyridin-5-yl)benzamide]
18 | ≤ 100 nM | ≤ 100 nM | Cc1nc(-c2cc(-c3cncc(C(=O)N(C)CCCO)c3)ccn2)[nH]c1C [Example 209, 2′-(4,5-Dimethyl-1H-imidazol-2-yl)-N-(3-hydroxypropyl)-N-methyl-3,4′-bipyridine-5-carboxamide]
19 | ≤ 500 nM | > 500 nM | CS(=O)(=O)n1cc(-c2ccnc(-c3ncc(-c4ccccc4)[nH]3)c2)cn1 [Example 44, 4-(1-(Methylsulfonyl)-1H-pyrazol-4-yl)-2-(5-phenyl-1H-imidazol-2-yl)pyridine trifluoroacetate salt]
20 | > 500 nM | > 500 nM | O=C(Cn1cc(-c2ccnc(-c3ncc(-c4ccccc4)[nH]3)c2)cn1)N1CCOCC1 [Example 51, 1-Morpholino-2-(4-(2-(5-phenyl-1H-imidazol-2-yl)pyridin-4-yl)-1H-pyrazol-1-yl)ethanone trifluoroacetate salt]
21 | ≤ 100 nM | ≤ 100 nM | CN1CCC(CNc2cncc(-c3ccnc(-c4ncc(-c5ccccc5)[nH]4)c3)c2)CC1 [Example 144, N-((1-Methylpiperidin-4-yl)methyl)-2′-(5-phenyl-1H-imidazol-2-yl)-3,4′-bipyridin-5-amine trifluoroacetate salt]
22 | ≤ 500 nM | ≤ 100 nM | Cc1nc(-c2cc(-c3cncc(N)c3)ccn2)[nH]c1C [Example 129, 2′-(4,5-Dimethyl-1H-imidazol-2-yl)-3,4′-bipyridin-5-amine]
23 | ≤ 50 nM | ≤ 500 nM | c1ccc(-c2cnc(-c3cc(-c4cnn(C5CCOCC5)c4)ccn3)[nH]2)cc1 [Example 47, 2-(5-Phenyl-1H-imidazol-2-yl)-4-(1-(tetrahydro-2H-pyran-4-yl)-1H-pyrazol-4-yl)pyridine trifluoroacetate salt]
24 | ≤ 500 nM | ≤ 500 nM | Cn1cc(-c2ccnc(-c3ncc(-c4ccccc4)[nH]3)c2)cn1 [Example 8, 4-(1-Methyl-1H-pyrazol-4-yl)-2-(5-phenyl-1H-imidazol-2-yl)pyridine trifluoroacetate salt]
25 | ≤ 500 nM | ≤ 500 nM | O=C(O)c1cccc(Cn2cc(-c3ccnc(-c4ncc(-c5ccccc5)[nH]4)c3)cn2)c1 [Example 34, 3-((4-(2-(5-Phenyl-1H-imidazol-2-yl)pyridin-4-yl)-1H-pyrazol-1-yl)methyl)benzoic acid trifluoroacetate salt]
26 | ≤ 500 nM | ≤ 500 nM | Cc1nc(-c2cc(-c3cncc(C(=O)N[C@@H](C)c4ccccc4)c3)ccn2)[nH]c1C [Example 195, 2′-(4,5-Dimethyl-1H-imidazol-2-yl)-N-[(1S)-1-phenylethyl]-3,4′-bipyridine-5-carboxamide trifluoroacetate salt]
27 | ≤ 500 nM | ≤ 500 nM | Cc1nc(-c2cc(-c3cncc(C(=O)N4CCCC(c5ccccc5)C4)c3)ccn2)[nH]c1C (racemic) [Example 188, 2′-(4,5-Dimethyl-1H-imidazol-2-yl)-5-[(3-phenylpiperidin-1-yl)carbonyl]-3,4′-bipyridine trifluoroacetate salt]
28 | ≤ 100 nM | ≤ 100 nM | CN1CCC(Nc2cncc(-c3ccnc(-c4ncc(-c5ccccc5)[nH]4)c3)c2)CC1 [Example 143, N-(1-Methylpiperidin-4-yl)-2′-(5-phenyl-1H-imidazol-2-yl)-3,4′-bipyridin-5-amine trifluoroacetate salt]
29 | > 500 nM | > 500 nM | Cc1nc(-c2cc(C3=CCCN(Cc4ccccc4)C3)ccn2)[nH]c1C [Example 223, 4-(1-Benzyl-1,2,5,6-tetrahydropyridin-3-yl)-2-(4,5-dimethyl-1H-imidazol-2-yl)pyridine trifluoroacetate salt]
30 | ≤ 50 nM | ≤ 100 nM | Cc1nc(-c2cc(-c3cncc(C(=O)N4CCC(Cc5ccccc5)CC4)c3)ccn2)[nH]c1C [Example 189, 5-[(4-Benzylpiperidin-1-yl)carbonyl]-2′-(4,5-dimethyl-1H-imidazol-2-yl)-3,4′-bipyridine trifluoroacetate salt]

Row | SMILES | IC50 [1] | IC50 [2]
31 | CC(=O)N1CCC(c2c[nH]c(-c3cc(-c4cnn(Cc5ccc(Cl)cc5)c4)ccn3)n2)C1 (centres unmarked) [Example 301, 2-[4-(1-Acetylpyrrolidin-3-yl)-1H-imidazol-2-yl]-4-[1-(4-chlorobenzyl)-1H-pyrazol-4-yl]pyridine trifluoroacetate salt] | > 500 nM | ≤ 500 nM
